# From patent US8993612B2, “Modulators of calcium release-activated calcium channel and methods for treatment of non-small cell lung cancer” (Rhizen Pharmaceuticals SA, priority 2009, dated 2015)
# Where a name gives a salt, the structure may show the parent alone. Read-outs that look alike come from different tables or passages of the source.
# Tests used:
# NCI-H460 cells [1] = experiment: In-vitro cell proliferation assay in NCI-H460 cancer cell line (MTT); format: cell-based, human; conditions: for inhibition at 10 µM: NCI-H460, 10 μM; for IC50: read-out: NCI-H460 Cell line assay G1 50 nM
# Experimental: Growth inhibition assays were carried out using 10% FBS supplemented media. Cells were seeded at a concentration of 5000 cells/well in a 96-well plate. Test compound at a concentration range from 0.01 to 10000 nM were added after 24 h. Growth was assessed using the 3-[4,5-dimethylthiazol-2-yl]-2,5-diphenyltetrazolium bromide (MTT) dye reduction test at 0 h (prior to the addition of the test compound) and 48 h after the addition of test compound. Absorbance was read on a Fluostar Optima (BMG Labtech, Germany) at a wave length of 450 nm. Data were analysed using GraphPad Prism. IC-50 for each compound was determined based on the % inhibition due to the test compound compared to the control.
# For methods of cell proliferation assay, see, for example, Mosmann. T., Journal of Immunological Methods, 65(1-2), 55-63, (1983).
# The effect of CRAC and/or STIM protein on the proliferation and viability of lung cancer cells was determined as follows.
# For Methodology Refer 1C.
# CRAC channels [2] = biological target: T1, CRAC channels (Homo sapiens (Human), UniProt Q96D31); experiment: In-vitro CRAC channel inhibition assay in NCI-H460 cancer cell line (thapsigargin-induced calcium influx); format: cell-based; conditions: NCI-H460 cells; for inhibition at 1 µM: read-out: NCI-H460 Cell Ca assay % inhibition @ 1 μM; for IC50: read-out: NCI-H460 Cell Ca assay IC 50 nM
# Experimental: Inhibition of CRAC channels was determined following thapsigargin (Sigma, Cat # T9033) induced endoplasmic calcium release in NCI-H460 cells (National Centre For Cell Science (NCCS), Pune).
# Cells (30,000 per well) were plated overnight in complete RPMI medium. Medium was substituted with Ca^2+ and Mg^2+ free Hanks buffer and Fluo-8 NW dye (ABD Bioquest, Inc., Sunnyvale, Calif.) loading solution in 96-well black plate. Plate was incubated at 37° C./5% CO2 for 30 min followed by further 15 mM incubation at room temperature. Test compounds (DMSO stocks diluted in Ca^2+ and Mg^2+ free Hanks buffer) at desired concentrations were added to the wells and incubated for 15 min. Thapsigargin (1 μM final concentration) was added to the wells and incubated for 15 min to inhibit the Sarco-endoplasmic reticulum Ca^2+ ATPase pump thereby depleting endoplasmic calcium and raising cytosolic calcium concentrations. Store-operated calcium entry was initiated by adding extracellular Ca^2+ to a final concentration of 2.5 mM. Fluorescence was monitored over 30 mM on a plate reader (BMG Labtech., Germany) with excitation at 485 nm and an emission wavelength at 520 nm. Data were analyzed using GraphPad Prism. IC50 for each compound was determined based on the percent inhibition of Thapsigargin-induced calcium influx into cells.
# For Methodology Refer 1B.
# CRAC channels [3] = biological target: T1, CRAC channels; experiment: In-vitro CRAC channel inhibition assay in Jurkat cells (thapsigargin-induced calcium influx); format: cell-based
# Experimental: Inhibition of CRAC channels was determined following thapsigargin (Sigma, Cat # T9033) induced endoplasmic calcium release in Jurkat cells. (see Yasurio Yonetoky et. al Bio. & Med. Chem. 14 (2006) 4750-4760). Cells were centrifuged and resuspended in equal volumes ° f Ca^2+ and Mg^2+ free Hanks buffer and Fluo-8 NW dye (ABD Bioquest, Inc., Sunnyvale, Calif.) loading solution at 2×10^5 cells/100 μl/well in 96-well black plate. Plate is incubated at 37° C./5% CO2 for 30 mM followed by further 15 mM incubation at room temperature. Test compounds (DMSO stocks diluted in Ca^2+ and Mg^2+ free Hanks buffer) at desired concentrations were added to the wells and incubated for […]. Thapsigargin (1 μM final concentration) was added to the wells and incubated for 15 min to inhibit the Sarco-endoplasmic reticulum Ca^2+ ATPase pump thereby depleting endoplasmic calcium and raising cytosolic calcium concentrations. Store-operated calcium entry was initiated by adding extracellular Ca^2+ to a final concentration of 1.8 mM. Fluorescence was monitored over […] on a plate reader (BMG Labtech., Germany) with excitation at 485 nm and an emission wavelength at 520 nm. Data were analyzed using GraphPad Prism. IC50 for each compound was determined based on the percent inhibition of thapsigargin-induced calcium influx into cells.
# TNFα = experiment: Inhibition of TNFα release in human whole blood; format: cell-based; conditions: Concanavalin A + PMA, 20 h, read-out: IC 50 Human Whole Blood TNFα
# Experimental: (§1) Inhibition of cytokine IL-2, IL-4, IL-5 and TNF α was determined as described below.
# (§2) Freshly collected HWB was diluted with RPMI medium (1:4.5) and added to a 96-well plate. Wells were incubated with desired concentrations of the inhibitor for 15 min. Cytokine release was induced by the addition of Concanavalin A (25 μg/ml)+Phorbol Myristate Acetate (50 ng/ml) for IL-2 & TNFα or with Phytohemagglutinin (5 μg/ml) for IL-4 & IL-5 and incubated at 37° C. in an atmosphere containing […]. Supernatant was collected after 20 h (IL-2 & TNFα) or 48 h (IL-4 & IL-5) for estimation of cytokines by ELISA. Data were analysed using GraphPad Prism. IC50 values for each compound were determined based on the percent inhibition due to the test compound compared to the control.
# IL-2 = experiment: Inhibition of IL-2 release in human whole blood; format: cell-based; conditions: Concanavalin A + PMA, 20 h, read-out: IC 50 Human Whole Blood IL-2
# Experimental: as §1, §2
# Orai1 = Orai1 mRNA expression in NCI-H460 cells by PCR; format: cell-based, human; conditions: 1 and 10 μM, qualitative PCR
# Experimental: (§3) Orai1 and Stim1 expression in non-small cell lung cancer cell lines was confirmed by PCR (polymerase chain reaction). Briefly, 5×10^6 cells treated with desired concentrations of the test article were harvested, pelleted, and resuspended in 1 ml TRI Reagent (Sigma, St. Louis, Mo.) and total RNA was extracted as per the manufacturer's instructions. cDNA was prepared using the First Strand cDNA synthesis and amplified using the following primer pairs:
# (§4) Bands were resolved by agarose gel electrophoresis and visualized using SYBR safe DNA gel stain.
# (§5) Orai and Stim expressions were measured using the methodology described in Example 1 above in NCI-H460 cells but with 1 and 10 μM of compound B.
# NCI-H460 cells [4] = experiment: Cytotoxicity in NCI-H460 cells (lactate dehydrogenase assay); format: cell-based, human; conditions: 48 h
# Experimental: Cytotoxicity of a test compound (Compound B) was determined using a lactate dehydrogenase assay kit (Cayman Chemicals, MI) as per the manufacturer's instructions with some minor modifications. Briefly, 20,000 cells/well in complete RPMI-1640 media were seeded in a 96-well tissue culture plate and incubated overnight at 37° C. and 5% CO2. The test compound was added to the wells in triplicate at the desired concentrations. Doxorubicin and/or 1% Triton-X were used as a positive control. After 48 h, the media was removed and assayed for lactate dehydrogenase in a colorimetric assay. Optical density was measured on a microplate reader (BMG Labtech., Germany) at 490 nM. Data were analyzed using Graphpad Prism (Graphpad software; San Diego Calif.).
# Stim1 = Stim1 mRNA expression in NCI-H460 cells by PCR; format: cell-based, human; conditions: 1 and 10 μM, qualitative PCR
# Experimental: as §3, §4, §5
# Stim2 = Stim2 mRNA expression in NCI-H460 cells by PCR; format: cell-based, human; conditions: 1 and 10 μM, qualitative PCR
# Experimental: as §3, §4, §5
# [5] = test system: NCI-H460 human non-small cell lung cancer xenografts; experiment: Anti-tumor efficacy in female Balb/c nude mice bearing NCI-H460 xenografts; format: in vivo
# [6] = Body weight in the NCI-H460 xenograft study; format: in vivo; conditions: Balb/c nude mice
# [7] = test system: CRAC channels over the voltage operated channels (VOC); conditions: Yonetoky et al.; cited from earlier work
# [8] = 30 mg/kg orally BID for 15 days
# T1 sequence (Q96D31 whole entry): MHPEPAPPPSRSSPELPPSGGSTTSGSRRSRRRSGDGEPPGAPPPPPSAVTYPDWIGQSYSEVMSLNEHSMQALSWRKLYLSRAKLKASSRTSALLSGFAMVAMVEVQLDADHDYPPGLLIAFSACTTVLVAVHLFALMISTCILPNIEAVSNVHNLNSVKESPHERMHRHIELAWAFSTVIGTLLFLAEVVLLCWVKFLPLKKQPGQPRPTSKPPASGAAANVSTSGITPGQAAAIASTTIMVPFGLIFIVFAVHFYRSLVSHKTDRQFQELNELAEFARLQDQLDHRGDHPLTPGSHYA
compound,measurement,setting,value
"O=C(Nc1ccc(-n2nc(C3CC3)cc2C2CC2)cc1)c1ccc2nn[nH]c2c1 [Example 2, N-[4-(3,5-dicyclopropyl-1H-pyrazol-1-yl)phenyl]-1H-benzo[d][1,2,3]triazole-6-carboxamide]",inhibition at 10 µM,"NCI-H460 cells [1]; Homo sapiens, 48 h",34%
same,inhibition at 1 µM,CRAC channels [2],91.1%
same,IC50,CRAC channels [3],182 nM
same,inhibition at 1 µM,CRAC channels [3]; 1 uM,78%
same,IC50,TNFα,148 nM
same,IC50,IL-2,102 nM
"O=C(Nc1ccc(-n2nc(C3CC3)cc2C2CC2)cc1)c1ccc2ncccc2c1 [Example 3, N-[4-(3,5-dicyclopropyl-1H-pyrazol-1-yl)phenyl]quinoline-6-carboxamide hydrochloride]",IC50,"NCI-H460 cells [1]; Homo sapiens, NCI-H460, 48 h",261 nM
same,inhibition at 1 µM,CRAC channels [2],100%
same,inhibition at 1 µM,CRAC channels [3]; 1 uM,100%
"O=C(Nc1ccc(-n2nc(C3CC3)cc2C2CC2)cc1)c1ccc2nccnc2c1 [Example 4, N-[4-(3,5-dicyclopropyl-1H-pyrazol-1-yl)phenyl]quinoxaline-6-carboxamide]",inhibition at 10 µM,"NCI-H460 cells [1]; Homo sapiens, 48 h",41%
same,inhibition at 1 µM,CRAC channels [2],80.7%
same,inhibition at 1 µM,CRAC channels [3]; 1 uM,85%
"O=C(Cn1cnc2ccccc21)Nc1ccc(-n2nc(C3CC3)cc2C2CC2)cc1 [Example 5, 2-(1H-benzo[d]imidazol-1-yl)-N-[4-(3,5-dicyclopropyl-1H-pyrazol-1-yl)phenyl]acetamide]",IC50,"NCI-H460 cells [1]; Homo sapiens, NCI-H460, 48 h",177 nM
same,IC50,CRAC channels [2],79.9 nM
same,IC50,CRAC channels [3],383 nM
same,inhibition at 1 µM,CRAC channels [3]; 1 uM,88.5%
"O=C(Cn1nnc2ccccc21)Nc1ccc(-n2nc(C3CC3)cc2C2CC2)cc1 [Example 6, 2-(1H-benzo[d][1,2,3]triazol-1-yl)-N-[4-(3,5-dicyclopropyl-1H-pyrazol-1-yl)phenyl]acetamide]",IC50,CRAC channels [3],51.3 nM
same,inhibition at 1 µM,CRAC channels [3]; 1 uM,94.6%
same,IC50,TNFα,165 nM
same,IC50,IL-2,52.2 nM
"O=C(Cc1ccc2ncccc2c1)Nc1ccc(-n2nc(C3CC3)cc2C2CC2)cc1 [Example 9, N-[4-(3,5-dicyclopropyl-1H-pyrazol-1-yl)phenyl]-2-(quinolin-6-yl)acetamide]",mRNA expression of Orai1,Orai1,significantly reduced
same,IC50,"NCI-H460 cells [1]; Homo sapiens, NCI-H460, 48 h",270 nM
same,Cytotoxicity (lactate dehydrogenase in the media),NCI-H460 cells [4],not cytotoxic
same,inhibition at 1 µM,CRAC channels [3]; 1 uM,100%
same,mRNA expression of Stim1,Stim1,significantly reduced
same,mRNA expression of Stim2,Stim2,significantly reduced
"Cl.O=C(Cc1ccc2ncccc2c1)Nc1ccc(-n2nc(C3CC3)cc2C2CC2)cc1 [Example 10, N-[4-(3,5-dicyclopropyl-1H-pyrazol-1-yl)phenyl]-2-(quinolin-6-yl)acetamide hydrochloride]",IC50,CRAC channels [2],72.7 nM
same,% inhibition (1 uM),CRAC channels [3]; 1 uM,100%
"O=C(Nc1ccc(-n2nc(C(F)(F)F)cc2C2CC2)cc1)c1ccc2ncccc2c1 [Example 17, N-{4-[5-cyclopropyl-3-(trifluoromethyl)-1H-pyrazol-1-yl]phenyl}quinoline-6-carboxamide hydrochloride]",IC50,"NCI-H460 cells [1]; Homo sapiens, NCI-H460, 48 h",710 nM
same,inhibition at 1 µM,CRAC channels [2],100%
same,inhibition at 1 µM,CRAC channels [3]; 1 uM,94%
"O=C(Cn1cnc2ccccc21)Nc1ccc(-n2nc(C(F)(F)F)cc2C2CC2)cc1 [Example 19, 2-(1H-benzo[d]imidazol-1-yl)-N-{4-[5-cyclopropyl-3-(trifluoromethyl)-1H-pyrazol-1-yl]phenyl}acetamide]",reduction in tumor growth,[5]; [8],32%
same,IC50,NCI-H460 cells [1]; 48 h,148 nM
same,inhibition at 1 µM,"NCI-H460 cells [1]; Homo sapiens, NCI-H460, 1 uM, 48 h",100%
same,inhibition at 10 µM,"NCI-H460 cells [1]; Homo sapiens, 48 h",83.6%
same,IC50,"NCI-H460 cells [1]; Homo sapiens, NCI-H460, 48 h",< 200 nM
same,inhibition at 1 µM,CRAC channels [2],100%
same,IC50,CRAC channels [2],< 200 nM
same,inhibition at 1 µM,CRAC channels [3]; 1 uM,69.5%
same,change in body weight,[6]; [8],without any significant change
"O=C(Cc1ccc2ncccc2c1)Nc1ccc(-n2nc(C(F)(F)F)cc2C2CC2)cc1 [Example 27, N-{4-[5-cyclopropyl-3-(trifluoromethyl)-1H-pyrazol-1-yl]phenyl}-2-(quinolin-6-yl)acetamide Hydrochloride]",IC50,"NCI-H460 cells [1]; Homo sapiens, NCI-H460, 48 h",358 nM
same,inhibition at 1 µM,CRAC channels [2],98.1%
same,inhibition at 1 µM,CRAC channels [3]; 1 uM,100%
same,IC50,TNFα,118 nM
same,IC50,IL-2,125 nM
Cc1nnsc1C(=O)Nc1ccc(-n2nc(C(F)(F)F)cc2C(F)(F)F)cc1 [YM-58483],selective index for CRAC channels over VOC,[7],31
"CC(=O)O[C@H]1C(=O)[C@@]2(C)[C@H]([C@H](OC(=O)c3ccccc3)[C@]3(O)C[C@H](OC(=O)[C@H](O)[C@@H](NC(=O)c4ccccc4)c4ccccc4)C(C)=C1C3(C)C)[C@]1(OC(C)=O)CO[C@@H]1C[C@@H]2O [taxol, Paclitaxel, reference compound]",reduction in tumor growth,[5]; intravenous administration,36%
same,change in body weight,[6]; intravenous administration,significant reduction
